The values below come from US9828375B2, “4-position substituted pyrazolopyrimidine derivative, and use thereof in drug preparation” (Guangxi Wuzhou Pharmaceuticals (Group) Co., Ltd., priority 2012, dated 2017).

In assay [1] the test system is human malignant melanoma cell line A375. Description: In vitro tumor cell proliferation inhibition (MTT): A375. Type of assay: cell-based. The source says: (§1) The purpose of the experiment was to test the inhibition activity of the compounds of the invention for in vitro human tumor cell proliferation by the methyl thiazolyl tetrazolium (MTT) colorimetry.
(§2) Main reagents: RPMI-1640, fetal bovine serum, pancreatin, etc. were purchased from Gibco BRL Company (Invitrogen Corporation, USA) and IMDM medium that was purchased from American Type Culture Collection (ATCC). Methyl thiazolyl tetrazolium (MTT) and dimethyl sulfoxide (DMSO) were products from Sigma Company (USA). Pyrazolopyrimidine derivatives were composed by the inventor. During in vitro experiment, 100% DMSO was prepared into 10 mM storage solution, the solution was stored in a refrigerator at −20° C. for future use, and was diluted to the required concentration with complete culture solution before use.
(§3) Cell line and culture: Human leukemia cell line MV4-11, Jurkat, K562, human thyrophyma cell line TT, human gastric carcinoma cell line MKN-45, human malignant melanoma cell lines A375 and A875, human pancreatic carcinoma cell line panc-1, human cervical carcinoma cell line HELA, human colorectal carcinoma cell line HCT116, etc. were purchased from American type culture collection and were preserved by this laboratory. All leukemia cell lines (except MV4-11), gastric carcinoma cell lines and thyrophyma cell lines were cultured in RPMI-1640 complete medium containing 10% fetal bovine serum, 100 U/mL penicillin and 100 μg/mL streptomycin at 37° C. in 5% CO2. The remaining cell lines were cultured in DMEM complete medium containing 10% fetal bovine serum (containing 20% MV4-11 cell), 100 U/mL penicillin and 100 µg/mL streptomycin at 37° C. in 5% CO2.
(§4) Cell suspension with cell concentration of 1-2×10^4/mL was adjusted with the complete cell medium and inoculated in a 96-well plate, with each well filled with 200 μl cell suspension that was cultured overnight. On the next day, supernatant was sucked and abandoned (supernatant was sucked upon centrifugation of suspension cells), and then cells were processed with test compounds at gradient concentrations respectively. Meanwhile, a negative control group free from drug and a solvent control group with equal volume were set, and the DMSO concentration was 0.1%. Each dose group was provided with three wells and cultured at 37° C. in 5% CO2. After 72 hours, 20 μl 5 mg/mL MTT reagent was added to each well, and cultured for another 2 to 4 hours, the supernatant was abandoned; 150 μL DMSO was added to each well again, vibrated and mixed evenly for 15 minutes; the absorbance (A) values (proportional to living cell amount) were determined with a microplate reader (λ=570 nm) and averaged. […] Experiment was repeated for 3 times at least. Experimental data were expressed with means, data statistics were tested by t, and P<0.05 means that difference has a statistical significance. The cell proliferation inhibition effects of all compounds as follows are expressed by IC50 or inhibition rate.

The subject of a further assay is Abl/Abl (T315I)(h). The assay is described as follows: Kinase inhibition activity test, isotope labeling: Abl. Type of assay: biochemical, human. The settings on record: test compound at a concentration of 10 μM. Here is the method: The purpose of this experiment was to test the inhibitory activity of the compound of the invention for in vitro kinase with the isotope labeling method (the γ phosphate group on ATP was labeled). In this experiment, the in vitro activity inhibition of such kinases as FLT3, VEGFR2, FLT1, FLT4, RET, c-RAF, B-RAF, c-KIT, PDGFα, PDGFβ, FGFR2, FGFR1, EphA2, EphB2, SRC, ABL, ALK and Met was tested respectively. Staurosporine was reference molecule (or referred to as positive control). The kinase inhibition activity of the test compound was expressed by half-inhibitory concentration (IC50) or the kinase activity inhibition rate of the test compound at a concentration of 10 μM. The IC50 value could be obtained by calculating the kinase activity inhibition rate of the test compound at different concentrations.
20 mM 3-(N-morpholinyl)propanesulfonic acid (MOPS); 1 mM ethylenediaminetetraacetic acid (EDTA), 0.01% Brij 35 (Brij-35), 5% glycerol, 0.1% mercaptoethanol, 1 mg/mL bovine serum albumin (BSA), 10 mM manganous dichloride solution (MnCl2), 0.1 mg/mL glutamic acid/tyrosine (4:1) polypeptide (poly(Glu, Tyr)4:1), 50 μM EAIYAAPFAKKK (substrate of FLT3), 0.33 mg/mL myelin basic protein (substrate of VEGFR2), 250 μM KKKSPGEYVNIEFG (substrate of FLT1(h)), 500 μM GGEEEEYFELVKKKK (substrate of FLT4(h)), 250 μM KKKSPGEYVNIEFG (substrate of RET), 0.66 mg/mL myelin basic protein (substrate of C-RAF), 250 μM GGMEDIYFEFMGGKKK (substrate of c-Kit), 250 μM GGMEDIYFEFMGGKKK (substrate of PDGFα), 250 μM KKKSPGEYVNIEFG (substrate of FGFR1), […] GGEEEEYFELVKKKK (substrate of SRC), 50 μM EAIYAAPFAKKK (substrate of ABL), 250 μM KKKSPGEYVNIEFG (substrate of ALK), 250 μM KKKSPGEYVNIEFG (substrate of Met(h)), 10 mM magnesium acetate and γ-^33 P-ATP solution, stop buffer (3% phosphate buffer), washing buffer (75 mM phosphate solution), methanol, Filtermat A membrane, FLT3, VEGFR2, FLT3, VEGFR2, FLT1, FLT4, RET, c-RAF, B-RAF, c-KIT, PDGFRα, PDGFRβ, FGFR2, FGFR1, EphA2, EphB2, SRC, ABL, ALK, Met and other kinases, and the test compounds.
Buffers (8 mM MOPS with pH value of 7.0, 0.2 mM EDTA and 10 mM MnCl2), (5-10 mU) kinases to be tested (FLT3, VEGFR2, FLT1, FLT4, RET, c-RAF, B-RAF, c-KIT, PDGFRα, PDGFRβ, FGFR2, FGFR1, EphA2, EphB2, SRC, ABL, ALK and Met), substrates of kinases to be tested (refer to experimental materials), 10 mM magnesium acetate and γ-^33 P-ATP solution, and test compounds at different concentrations were added to a reaction tube orderly. […] Reaction was terminated with 5 μL 3% phosphate buffer finally, and 10 μL reaction solution was titrated to the Filtermat A membrane; solution was washed for 3 times with 75 mM phosphate solution with each time lasting 5 minutes, and then washed once with methanol. Finally, the Filtermat A membrane was dried, and scintillation counting was performed on the membrane, with scintillation count reflecting the phosphorylation degree of the substrates, so that the activity inhibition of kinase could be characterized.

For assay [2], the system named is human thyrophyma cell line TT. The assay is described as follows: In vitro tumor cell proliferation inhibition (MTT): TT. Type of assay: cell-based.
Text: as §1, §2, §3, §4

Bounds are passed on as bounds.

What is called IC50 is the concentration that gives 50% inhibition. “1-(4-((1H-pyrazolopyrimidine-4-yl)oxy)-3-fluorophenyl)-3-(3-trifluoromethoxy)phenyl)urea [4a-8]” returned an IC50 in assay [1] (72 hours) of 4.65 µM. The “Activity inhibition rate Abl/Abl (T315I)(h)” value in the assay on Abl/Abl (T315I)(h) is given as 34%.
With “1-(4-((1H-pyrazolopyrimidine-4-yl)oxy)phenyl)-3-(methylcyclohexyl)urea [4a-20]”, the concentration for half-maximal inhibition (IC50) in assay [1] (72 hours) is below 50 µM. Further, the “Activity inhibition rate Abl/Abl (T315I)(h)” value with Abl/Abl (T315I)(h) is recorded as 19%.
With `O=C(Nc1ccc(Oc2ncnc3[nH]ncc23)cc1)Nc1ccc(C(F)(F)F)cc1` [4a-1], the half-inhibitory concentration (IC50) in assay [1] (Homo sapiens, A-375, 72 hours) was below 50 µM; in assay [2] (Homo sapiens, 72 h), below 50 µM. For the same molecule, the “Activity inhibition rate Abl/Abl (T315I)(h)” value in the assay with Abl/Abl (T315I)(h) is given as 17%.
Turning to `CC(C)c1cccc(NC(=O)Nc2ccc(Oc3ncnc4[nH]ncc34)c(F)c2)c1` [4a-7, 1-(4-((1H-pyrazolopyrimidine-4-yl)oxy)-3-fluorophenyl)-3-(3-isopropylphenyl)urea], the IC50 in assay [1] (72 hours) is below 50 µM. Further, in the assay on Abl/Abl (T315I)(h), the “Activity inhibition rate Abl/Abl (T315I)(h)” value was determined as 60%.
For `O=C(Nc1ccc(C(F)(F)F)cc1)Nc1ccc(Oc2ncnc3[nH]ncc23)c(F)c1` [4a-9, 1-(4-((1H-pyrazolopyrimidine-4-yl)oxy)-3-fluorophenyl)-3-(4-(trifluoromethyl)phenyl)urea], the IC50 is below 50 µM in assay [1] (72 hours) and 1.63 µM in assay [2] (72 hours). Moreover, the “Activity inhibition rate Abl/Abl (T315I)(h)” value in the assay with Abl/Abl (T315I)(h) is 15%.
`O=C(Nc1ccc(Oc2ncnc3[nH]ncc23)c(F)c1)Nc1ccc(Cl)c(C(F)(F)F)c1` [4a-10, 1-(4-((1H-pyrazolopyrimidine-4-yl)oxy)-3-fluorophenyl)-3-(4-chloro-3-(trifluoromethyl)phenyl)urea] showed an IC50 in assay [1] (72 hours) below 50 µM. Besides, in the assay with Abl/Abl (T315I)(h), the “Activity inhibition rate Abl/Abl (T315I)(h)” value amounted to 67%.
For `O=C(Nc1ccc(Oc2ncnc3[nH]ncc23)cc1)Nc1cc(C(F)(F)F)cc(C(F)(F)F)c1` [4a-12, 1-(4-((1H-pyrazolopyrimidine-4-yl)oxy)phenyl)-3-(3,5-bis(trifluoromethyl)phenyl)urea] the same measures were below 50 µM and 78%.
On to `O=C(Nc1ccc(Oc2ncnc3[nH]ncc23)cc1)Nc1ccc(C(F)(F)F)cc1Cl` [4a-13], for which the figures for the IC50 in assay [1] (72 hours) and in assay [2] (72 hours) were below 50 µM and 3 to 10 µM, respectively. Moreover, in the assay with Abl/Abl (T315I)(h), the “Activity inhibition rate Abl/Abl (T315I)(h)” value turned out to be 27%.
`O=C(Nc1ccccc1)Nc1ccc(Oc2ncnc3[nH]ncc23)cc1` [4a-15, 1-(4-((1H-pyrazolopyrimidine-4-yl)oxy)phenyl)-3-phenylurea] showed an IC50 in assay [1] (72 hours) below 50 µM. In addition, the “Activity inhibition rate Abl/Abl (T315I)(h)” value with Abl/Abl (T315I)(h) was 99%.
In the case of `O=C(Nc1ccc(Oc2ncnc3[nH]ncc23)cc1)Nc1ccc(N2CCOCC2)cc1` [4a-16, 1-(4-((1H-pyrazolopyrimidine-4-yl)oxy)phenyl)-3-(4-morpholinylphenyl)urea], the IC50 in assay [1] (Homo sapiens, A-375, 72 hours) is below 50 µM.
`C[C@H](NC(=O)Nc1ccc(Oc2ncnc3[nH]ncc23)cc1)c1ccccc1` [4a-18, (S)-1-(4-((1H-pyrazolopyrimidine-4-yl)oxy)phenyl)-3-(1-phenethyl)urea] showed an IC50 in assay [1] (72 hours) below 50 µM. In addition, the “Activity inhibition rate Abl/Abl (T315I)(h)” value in the assay on Abl/Abl (T315I)(h) was determined as 45%.
Turning to `C[C@@H](NC(=O)Nc1ccc(Oc2ncnc3[nH]ncc23)cc1)c1ccccc1` [4a-19, (R)-1-(4-((1H-pyrazolopyrimidine-4-yl)oxy)phenyl)-3-(1-phenethyl)urea], the IC50 in assay [1] (72 hours) was below 50 µM. In addition, in the assay with Abl/Abl (T315I)(h), the “Activity inhibition rate Abl/Abl (T315I)(h)” value came to 21%.
With `CC(C)(C)c1cc(NC(=O)Nc2ccc(Oc3ncnc4[nH]ncc34)cc2)n(-c2ccccc2)n1` [4a-24], the IC50 in assay [1] (72 hours) worked out at 6.94 µM; in assay [2] (72 hours) it was 1.55 µM. Besides, in the assay on Abl/Abl (T315I)(h), the “Activity inhibition rate Abl/Abl (T315I)(h)” value is above 50%.
Turning to `CC(C)(C)c1cc(NC(=O)Nc2ccc(Oc3ncnc4[nH]ncc34)cc2)no1` [4a-26], the IC50 in assay [1] (Homo sapiens, A-375, 72 hours) is 3 to 10 µM; in assay [2] (Homo sapiens, 72 h) it was 2.12 µM. Besides, the “Activity inhibition rate Abl/Abl (T315I)(h)” value in the assay with Abl/Abl (T315I)(h) was above 50%.
For `O=C(Nc1ccc(Oc2ncnc3[nH]ncc23)cc1)Nc1cc(C(F)(F)F)on1` [4a-28] the same measures were below 50 µM, 3 to 10 µM and above 50%.
With `O=C(Nc1cccc(Nc2ncnc3[nH]ncc23)c1)Nc1ccc(F)c(Cl)c1` [4b-1], the IC50 in assay [1] (Homo sapiens, A-375, 72 hours) is below 50 µM.
For the molecule `C[C@@H](NC(=O)Nc1ccc(Nc2ncnc3[nH]ncc23)cc1)c1ccccc1` [4b-2, (R)-1-(4-(1H-pyrazolopyrimidine-4-amido)phenyl)-3-(1-phenethyl)urea], the IC50 in assay [1] (Homo sapiens, A-375, 72 hours) was below 50 µM.
For the molecule `COc1cccc(NC(=O)Nc2ccc(Nc3ncnc4[nH]ncc34)cc2)c1` [4b-3], the IC50 in assay [1] (Homo sapiens, A-375, 72 hours) is below 50 µM.
In assay [1] (72 hours), `C[C@H](NC(=O)Nc1ccc(Nc2ncnc3[nH]ncc23)cc1)c1ccccc1` [4b-4] displayed an IC50 below 50 µM.
Consider `O=C(Nc1ccc(NC(=O)N2C=NC=C3NNC=C32)cc1)Nc1ccc(Cl)c(C(F)(F)F)c1` [4b-5, 1-(4-(1H-pyrazolopyrimidine-4-amido)phenyl)-3-(4-chloro-3-(trifluoromethyl)phenyl)urea], for which the IC50 in assay [2] (Homo sapiens, 72 h) turned out to be 9.48 µM. This counts as single-digit micromolar.
Regarding `COc1ccc(NC(=O)Nc2ccc(NC(=O)N3C=NC=C4NNC=C43)cc2)cc1` [4b-6, 1-(4-(1H-pyrazolopyrimidine-4-amido)phenyl)-3-(4-methoxyphenyl)urea], in assay [1] (Homo sapiens, A-375, 72 hours), the IC50 is below 50 µM.
`Cc1cc(C)c(NC(=O)Nc2ccc(NC(=O)N3C=NC=C4NNC=C43)cc2)c(C)c1` [4b-7, 1-(4-(1H-pyrazolopyrimidine-4-amido)phenyl)-3-(2,4,6-trimethylphenyl)urea] had an IC50 in assay [1] (Homo sapiens, A-375, 72 hours) below 50 µM.
Molecule `O=C(Nc1ccc(Sc2ncnc3[nH]ncc23)cc1)Nc1ccc(C(F)(F)F)cc1` [4c-1] returned an IC50 in assay [1] (Homo sapiens, A-375, 72 hours) below 50 µM. The “Activity inhibition rate Abl/Abl (T315I)(h)” value with Abl/Abl (T315I)(h) is recorded as above 30%.
Regarding `CC(C)n1ncc2c(Oc3ccc(NC(=O)Nc4cc(C(C)(C)C)on4)cc3)ncnc21` [5a-4, 1-(5-tert-butylisoxazol-3-yl)-3-(4-(1-isopropyl-(1H-pyrazolopyrimidine-4-yl)oxy)phenyl)urea], the IC50 in assay [1] (Homo sapiens, A-375, 72 hours) is below 50 µM; in assay [2] (Homo sapiens, 72 h) it was 9.89 µM.
